29 compounds from patent EP4778924A1 (Huons Co., Ltd., priority 2023, dated 2025) can be followed below.

The target in assay [1] is T1, Proton Pump (H^+,K^+-ATPase) (Sus scrofa, UniProt P19156).
T1 construct: gastric vesicles were isolated from porcine stomachs; from tissue; host or cells: porcine stomach (gastric vesicles)
Kind of assay: Inhibitory activity on proton pump (H+,K+-ATPase) activity, porcine gastric vesicles, malachite green readout. Type of assay: biochemical. Particulars: for pIC50: porcine gastric vesicles, pH 6.5, 8 mM KCl, 0.2 mM ATP; for inhibitory activity against proton pump activity: result in words. The method in brief: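 Porcine gastric vesicles (100 ng) preincubated 30 min at 37°C with […] valinomycin and compound (0.1% DMSO final) in 50 mM Tris-HEPES, 5 mM MgCl2, 8 mM KCl, pH 6.5, then 0.2 mM ATP for 20 min at 37°C. Released phosphate measured by malachite green at 620 nm; IC50 via nonlinear regression of % inhibition.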

Assay [2] has as its system Pylorus-Ligated Rats. The experiment in a line: Inhibitory activity on basal gastric acid secretion in pylorus-ligated rats (Shay's rat model). Type of assay: in vivo, male Sprague Dawley (SD) rats. Particulars: for inhibitory activity against basal gastric acid secretion: result in words, pyloric-ligated rats. As for the experimental part: Specifically, male Sprague Dawley (SD) rats (weighing 180-220 g) were fasted for 24 hours with only water, and then randomly assigned to groups (n=4-5) after measuring body weight. The negative control group was orally administered 10% dimethylsulfoxide (DMSO)/10% Cremophor EL/80% D.W. at 2 mL/kg, and the test group was orally administered the test compound at 2 mg/kg/2 mL. One hour after administration, the rats' abdominal cavity was incised under isoflurane anesthesia, the stomach was exposed, and the pylorus was ligated. Three hours after ligation, the test animals were sacrificed and the stomach contents were collected by laparotomy again. The contents were centrifuged (3,000 rpm, 10 min), and only the supernatant was separated to obtain gastric juice. Afterwards, gastric fluid volume measurement, gastric fluid pH measurement, NaOH titration, and total gastric acid secretion calculation (gastric fluid volume × 0.1 N NaOH titer × 100) were sequentially performed.

pIC50: −log10 of the molar value. Counter-ions that a name gives are not always drawn.

T1 sequence (P19156 2-1034 limits assumed): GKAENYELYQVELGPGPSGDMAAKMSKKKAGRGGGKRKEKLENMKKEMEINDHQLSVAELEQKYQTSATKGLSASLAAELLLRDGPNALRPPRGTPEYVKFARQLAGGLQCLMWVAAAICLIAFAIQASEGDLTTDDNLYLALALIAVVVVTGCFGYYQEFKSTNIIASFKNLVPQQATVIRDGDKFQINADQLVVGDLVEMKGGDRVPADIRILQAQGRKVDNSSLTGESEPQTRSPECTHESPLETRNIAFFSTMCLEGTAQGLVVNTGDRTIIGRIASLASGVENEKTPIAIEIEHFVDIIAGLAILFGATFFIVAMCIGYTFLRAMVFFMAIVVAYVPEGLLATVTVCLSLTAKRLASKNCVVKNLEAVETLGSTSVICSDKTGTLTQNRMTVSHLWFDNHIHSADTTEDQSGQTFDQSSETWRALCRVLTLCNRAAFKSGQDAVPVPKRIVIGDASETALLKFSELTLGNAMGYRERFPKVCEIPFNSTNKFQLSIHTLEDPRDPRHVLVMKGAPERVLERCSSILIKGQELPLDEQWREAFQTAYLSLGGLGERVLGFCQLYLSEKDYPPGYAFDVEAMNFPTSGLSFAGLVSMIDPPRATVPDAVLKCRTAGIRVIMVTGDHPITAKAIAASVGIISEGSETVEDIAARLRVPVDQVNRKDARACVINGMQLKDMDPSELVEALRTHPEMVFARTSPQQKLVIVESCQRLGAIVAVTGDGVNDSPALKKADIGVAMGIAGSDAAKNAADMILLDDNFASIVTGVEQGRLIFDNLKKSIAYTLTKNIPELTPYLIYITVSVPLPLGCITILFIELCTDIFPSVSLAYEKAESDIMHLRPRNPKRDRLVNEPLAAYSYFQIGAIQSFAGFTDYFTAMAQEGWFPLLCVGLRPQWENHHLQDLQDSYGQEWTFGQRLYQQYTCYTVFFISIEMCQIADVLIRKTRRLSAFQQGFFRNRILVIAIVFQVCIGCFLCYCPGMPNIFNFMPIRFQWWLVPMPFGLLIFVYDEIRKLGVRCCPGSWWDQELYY
T1 sequence (P18434 whole entry partner): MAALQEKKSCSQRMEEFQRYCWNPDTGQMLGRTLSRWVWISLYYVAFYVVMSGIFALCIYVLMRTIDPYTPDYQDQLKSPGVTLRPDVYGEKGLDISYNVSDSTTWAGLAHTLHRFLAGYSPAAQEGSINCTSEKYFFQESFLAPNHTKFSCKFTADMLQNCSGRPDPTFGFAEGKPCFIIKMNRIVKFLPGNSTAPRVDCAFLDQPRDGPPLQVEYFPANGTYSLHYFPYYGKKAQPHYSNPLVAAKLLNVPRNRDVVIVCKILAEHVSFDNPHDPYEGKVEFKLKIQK

In the case of `CC(=O)Nc1cc(NCc2c(C)cccc2C)c2nc(C)c(C)n2c1` [Example 4, N-(8-((2,6-dimethylbenzyl)amino)-2,3-dimethylimidazo[1,2-a]pyridin-6-yl)acetamide], in assay [1], the pIC50 is greater than 7.30 and the “inhibitory activity against proton pump activity” value is reported as “excellent inhibitory properties”. The inhibition in vivo at 2 mg/kg in assay [2] (Rattus norvegicus, po, read-out: GERD (rat/mpk)) was no less than 90%. The “inhibitory activity against basal gastric acid secretion” value in assay [2] (2 mg/kg oral) is “inhibitory activity”.

As to `CC(=O)Nc1cc(NCc2c(C)cc(F)cc2C)c2nc(C)c(C)n2c1.Cl` [Example 45, N-(8-((4-fluoro-2,6-dimethylbenzyl)amino)-2,3-dimethylimidazo[1,2-a]pyridin-6-yl)acetamide hydrochloride], the “GERD (rat/mpk)” value in assay [2] (% inhibitory activity on total gastric acid secretion, 2 mg/kg oral, pylorus ligated 1 h after administration, stomach contents collected 3 h after ligation) is reported as “A (A≥90%)”. Also, the “inhibitory activity against basal gastric acid secretion” value in assay [2] (2 mg/kg oral) is “inhibitory activity”.

Turning to `Cc1cccc(C)c1CNc1cc(NC(=O)CNC(=O)CO)cn2c(C)c(C)nc12` [Example 95, N-(8-((2,6-dimethylbenzyl)amino)-2,3-dimethylimidazo[1,2-a]pyridin-6-yl)-2-(2-hydroxyacetamido)acetamide], the pIC50 in assay [1] is greater than 7.30.

Take `Cc1cccc(C)c1CNc1cc(NC(=O)[C@H](C)O)cn2c(C)c(C)nc12` [Example 96, (S)-N-(8-((2,6-dimethylbenzyl)amino)-2,3-dimethylimidazo[1,2-a]pyridin-6-yl)-2-hydroxypropanamide citrate]: the pIC50 in assay [1] was 6.30 to 7.00.

Consider `Cc1cccc(C)c1CNc1cc(NC(=O)[C@@H](C)O)cn2c(C)c(C)nc12` [Example 97, (R)-N-(8-((2,6-dimethylbenzyl)amino)-2,3-dimethylimidazo[1,2-a]pyridin-6-yl)-2-hydroxypropanamide citrate], for which the pIC50 in assay [1] was 7.00 to 7.30.

On to `CNCC(=O)Nc1cc(NCc2c(C)cccc2C)c2nc(C)c(C)n2c1` [Example 98, N-(8-((2,6-dimethylbenzyl)amino)-2,3-dimethylimidazo[1,2-a]pyridin-6-yl)-2-(methylamino)acetamide hydrochloride], for which the negative-log IC50 (pIC50) in assay [1] is 7.00 to 7.30.

As to `Cc1cccc(C)c1CNc1cc(NC(=O)CCN)cn2c(C)c(C)nc12` [Example 99, 3-amino-N-(8-((2,6-dimethylbenzyl)amino)-2,3-dimethylimidazo[1,2-a]pyridin-6-yl)propanamide hydrochloride], in assay [1], the pIC50 was 7.00 to 7.30.

`Cc1cccc(C)c1CNc1cc(NC(=O)N2CCNCC2)cn2c(C)c(C)nc12` [Example 103, N-(8-((2,6-dimethylbenzyl)amino)-2,3-dimethylimidazo[1,2-a]pyridin-6-yl)piperazine-1-carboxamide hydrochloride] gave a pIC50 in assay [1] of 6.30 to 7.00.

In assay [1], `Cc1cccc(C)c1CNc1cc(NC(=O)c2ccccc2)cn2c(C)c(C)nc12` [Example 104, N-(8-((2,6-dimethylbenzyl)amino)-2,3-dimethylimidazo[1,2-a]pyridin-6-yl)benzamide citrate] showed a pIC50 of 6.30 to 7.00.

As to `Cc1cccc(C)c1CNc1cc(NC(=O)[C@H]2CCNC2)cn2c(C)c(C)nc12` [Example 105, (S)-N-(8-((2,6-dimethylbenzyl)amino)-2,3-dimethylimidazo[1,2-a]pyridin-6-yl)pyrrolidine-3-carboxamide hydrochloride], the pIC50 in assay [1] was 6.30 to 7.00.

In turn, `Cc1cccc(C)c1CNc1cc(NC(=O)[C@@H]2CCCCN2)cn2c(C)c(C)nc12` [Example 106, (S)-N-(8-((2,6-dimethylbenzyl)amino)-2,3-dimethylimidazo[1,2-a]pyridin-6-yl)piperidine-2-carboxamide hydrochloride] showed a pIC50 in assay [1] of 6.30 to 7.00.

`CC(=O)Oc1ccc(/C=C/C(=O)Nc2cc(NCc3c(C)cccc3C)c3nc(C)c(C)n3c2)cc1` [Example 107, (E)-4-(3-((8-((2,6-dimethylbenzyl)amino)-2,3-dimethylimidazo[1,2-a]pyridin-6-yl)amino)-3-oxoprop-1-en-1-yl)phenyl acetate] had a pIC50 in assay [1] of less than 6.30.

The compound `COc1cc(/C=C/C(=O)Nc2cc(NCc3c(C)cccc3C)c3nc(C)c(C)n3c2)ccc1OC(C)=O` [Example 108, (E)-4-(3-((8-((2,6-dimethylbenzyl)amino)-2,3-dimethylimidazo[1,2-a]pyridin-6-yl)amino)-3-oxoprop-1-en-1-yl)-2-methoxyphenyl acetate] gave a pIC50 in assay [1] of less than 6.30.

In the case of `Cc1cccc(C)c1CNc1cc(NC(=O)[C@@H]2CN2)cn2c(C)c(C)nc12` [Example 109, (S)-N-(8-((2,6-dimethylbenzyl)amino)-2,3-dimethylimidazo[1,2-a]pyridin-6-yl)aziridine-2-carboxamide hydrochloride], the pIC50 in assay [1] was 6.30 to 7.00.

Turning to `Cc1cccc(C)c1CNc1cc(NC(=O)[C@H]2CCN(C(=O)CO)C2)cn2c(C)c(C)nc12` [Example 110, (S)-N-(8-((2,6-dimethylbenzyl)amino)-2,3-dimethylimidazo[1,2-a]pyridin-6-yl)-1-(2-hydroxyacetyl)pyrrolidine-3-carboxamide citrate], the negative logarithm of the IC50 (pIC50) in assay [1] is 6.30 to 7.00.

Regarding `CC(=O)O[C@H](C)C(=O)Nc1cc(NCc2c(C)cc(F)cc2C)c2nc(C)c(C)n2c1` [Example 111, (R)-1-((8-((4-fluoro-2,6-dimethylbenzyl)amino)-2,3-dimethylimidazo[1,2-a]pyridin-6-yl)amino)-1-oxopropan-2-yl acetate], the pIC50 in assay [1] is 6.30 to 7.00.

Regarding `CC(=O)O[C@@H](C)C(=O)Nc1cc(NCc2c(C)cc(F)cc2C)c2nc(C)c(C)n2c1` [Example 112, (S)-1-((8-((4-fluoro-2,6-dimethylbenzyl)amino)-2,3-dimethylimidazo[1,2-a]pyridin-6-yl)amino)-1-oxopropan-2-yl acetate], in assay [1], the pIC50 was less than 6.30.

For `CC(=O)OC1(C(=O)Nc2cc(NCc3c(C)cc(F)cc3C)c3nc(C)c(C)n3c2)CC1` [Example 113, 1-((8-((4-fluoro-2,6-dimethylbenzyl)amino)-2,3-dimethylimidazo[1,2-a]pyridin-6-yl)carbamoyl)cyclopropyl acetate], the pIC50 in assay [1] was 6.30 to 7.00.

`Cc1cc(F)cc(C)c1CNc1cc(NC(=O)[C@H](C)O)cn2c(C)c(C)nc12` [Example 114, (S)-N-(8-((4-fluoro-2,6-dimethylbenzyl)amino)-2,3-dimethylimidazo[1,2-a]pyridin-6-yl)-2-hydroxypropanamide]: the pIC50 in assay [1] was 6.30 to 7.00.

Take `Cc1cc(F)cc(C)c1CNc1cc(NC(=O)C2(O)CC2)cn2c(C)c(C)nc12` [Example 115, N-(8-((4-fluoro-2,6-dimethylbenzyl)amino)-2,3-dimethylimidazo[1,2-a]pyridin-6-yl)-1-hydroxycyclopropane-1-carboxamide]: in assay [1], the pIC50 was greater than 7.30 and the “inhibitory activity against proton pump activity” value is “excellent inhibitory properties”.

In turn, `Cc1cc(F)cc(C)c1CNc1cc(N2C(=O)CN(C)C2=O)cn2c(C)c(C)nc12` [Example 116, 3-(8-((4-fluoro-2,6-dimethylbenzyl)amino)-2,3-dimethylimidazolidine[1,2-a]pyridin-6-yl)-1-methylimidazolidine-2,4-dione] showed a negative-log IC50 (pIC50) in assay [1] of 7.00 to 7.30.

As to `Cc1cc(F)cc(C)c1CNc1cc(NC(=O)[C@@H](C)O)cn2c(C)c(C)nc12` [Example 117, (R)-N-(8-((4-fluoro-2,6-dimethylbenzyl)amino)-2,3-dimethylimidazo[1,2-a]pyridin-6-yl)-2-hydroxypropanamide], in assay [1], the pIC50 was greater than 7.30 and the “inhibitory activity against proton pump activity” value is given as “excellent inhibitory properties”.

In assay [1], `Cc1cccc(C)c1CNc1cc(NC(=O)[C@H]2CCCNC2)cn2c(C)c(C)nc12` [Example 118, (S)-N-(8-((2,6-dimethylbenzyl)amino)-2,3-dimethylimidazo[1,2-a]pyridin-6-yl)piperidine-3-carboxamide hydrochloride] showed a pIC50 of 6.30 to 7.00.

`Cc1cccc(C)c1CNc1cc(NC(=O)CCNC(=O)CO)cn2c(C)c(C)nc12` [Example 119, N-(8-((2,6-dimethylbenzyl)amino)-2,3-dimethylimidazo[1,2-a]pyridin-6-yl)-3-(2-hydroxyacetamido)propanamide]: in assay [1], the pIC50 was 7.00 to 7.30.

With `Cc1cccc(C)c1CNc1cc(NC(=O)[C@H]2CCCN(C(=O)CO)C2)cn2c(C)c(C)nc12` [Example 120, (S)-N-(8-((2,6-dimethylbenzyl)amino)-2,3-dimethylimidazo[1,2-a]pyridin-6-yl)-1-(2-hydroxyacetyl)piperidine-3-carboxamide], the pIC50 in assay [1] was 6.30 to 7.00.

`Cc1cccc(C)c1CNc1cc(N)cn2c(C)c(C)nc12` [Preliminary Example 1, N^8-(2,6-dimethylbenzyl)-2,3-dimethylimidazo[1,2-a]pyridine-6,8-diamine] had a negative logarithm of the IC50 (pIC50) in assay [1] of 7.00 to 7.30.

`Cc1cc(F)cc(C)c1CNc1cc(N)cn2c(C)c(C)nc12` [Preliminary Example 2, N^8-(4-fluoro-2,6-dimethylbenzyl)-2,3-dimethylimidazo[1,2-a]pyridine-6,8-diamine hydrochloride] had a pIC50 in assay [1] of 7.00 to 7.30.

In assay [1], `Cc1nc2c(O[C@H]3CCOc4cc(F)cc(F)c43)cc(C(=O)N(C)C)cc2[nH]1` [Tegoprazan, reference compound] gave a pIC50 of less than 6.30.

In assay [1], “tert-butyl (2-(3-(8-((2,6-dimethylbenzyl)amino)-2,3-dimethylimidazo[1,2-a]pyridin-6-yl)ureido)ethyl)carbamate hydrochloride [Example 42]” showed a pIC50 of 6.30 to 7.00.
